Measured values from article PMC12155096 (International Journal of Molecular Sciences, 2025).
Counter-ions that a name gives are not always drawn. Like-named read-outs stand apart in the source and are kept apart here.

Experiments:
[1] = target: Photinus pyralis (firefly) luciferase (Photinus pyralis, UniProt P08659); assay: biochemical; type: biochemical
[2] = target: T1, human CYP2C9 (Homo sapiens, UniProt P11712)
[3] = target: T2, human CYP1A2 (Homo sapiens, UniProt P05177); assay: biochemical
T2 sequence (P05177 1-516): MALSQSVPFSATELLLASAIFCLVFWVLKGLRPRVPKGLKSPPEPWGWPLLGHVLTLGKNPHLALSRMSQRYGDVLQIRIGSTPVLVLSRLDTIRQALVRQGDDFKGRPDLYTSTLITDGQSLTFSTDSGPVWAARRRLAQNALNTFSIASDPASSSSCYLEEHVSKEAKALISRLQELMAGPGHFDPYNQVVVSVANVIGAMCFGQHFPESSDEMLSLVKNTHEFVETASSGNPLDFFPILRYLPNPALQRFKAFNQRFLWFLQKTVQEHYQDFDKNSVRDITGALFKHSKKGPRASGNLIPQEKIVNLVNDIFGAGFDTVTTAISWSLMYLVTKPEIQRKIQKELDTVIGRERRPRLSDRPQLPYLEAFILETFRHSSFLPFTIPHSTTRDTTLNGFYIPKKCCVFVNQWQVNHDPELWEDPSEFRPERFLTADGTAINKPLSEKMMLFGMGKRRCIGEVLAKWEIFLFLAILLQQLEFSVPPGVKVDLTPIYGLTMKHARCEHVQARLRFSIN

[4] = target: T3, human CYP2D6 (Homo sapiens, UniProt P10635)
T3 sequence (P10635 whole entry): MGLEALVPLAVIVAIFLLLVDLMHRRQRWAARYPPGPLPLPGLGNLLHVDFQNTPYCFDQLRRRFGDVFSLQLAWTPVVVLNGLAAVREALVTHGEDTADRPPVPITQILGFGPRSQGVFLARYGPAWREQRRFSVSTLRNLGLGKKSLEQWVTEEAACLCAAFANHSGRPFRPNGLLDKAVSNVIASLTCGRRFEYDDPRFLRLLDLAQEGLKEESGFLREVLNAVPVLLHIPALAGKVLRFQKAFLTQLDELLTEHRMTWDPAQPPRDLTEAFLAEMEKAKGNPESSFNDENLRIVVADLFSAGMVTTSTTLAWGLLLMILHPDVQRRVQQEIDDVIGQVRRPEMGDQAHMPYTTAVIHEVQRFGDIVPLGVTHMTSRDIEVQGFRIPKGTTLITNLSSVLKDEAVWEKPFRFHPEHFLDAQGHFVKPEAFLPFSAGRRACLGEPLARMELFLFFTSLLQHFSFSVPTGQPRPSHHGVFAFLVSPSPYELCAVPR

[5] = target: CYP3A4 (Homo sapiens, UniProt P08684)
Sequence of CYP3A4 (P08684 whole entry): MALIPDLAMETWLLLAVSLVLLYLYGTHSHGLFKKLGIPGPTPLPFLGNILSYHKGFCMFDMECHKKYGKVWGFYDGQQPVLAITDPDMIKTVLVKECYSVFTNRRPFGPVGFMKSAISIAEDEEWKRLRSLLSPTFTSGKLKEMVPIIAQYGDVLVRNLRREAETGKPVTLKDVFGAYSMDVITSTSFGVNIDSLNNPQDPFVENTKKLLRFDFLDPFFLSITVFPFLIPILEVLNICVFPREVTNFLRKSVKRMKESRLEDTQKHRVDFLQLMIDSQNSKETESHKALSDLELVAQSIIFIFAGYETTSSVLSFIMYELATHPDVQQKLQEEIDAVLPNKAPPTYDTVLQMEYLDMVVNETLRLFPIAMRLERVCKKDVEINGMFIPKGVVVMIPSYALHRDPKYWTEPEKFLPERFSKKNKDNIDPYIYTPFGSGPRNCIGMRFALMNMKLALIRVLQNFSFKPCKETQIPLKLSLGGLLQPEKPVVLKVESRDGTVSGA

[6] = target: T4, human CYP2C19 (Homo sapiens, UniProt P33261)
T4 sequence (P33261 whole entry): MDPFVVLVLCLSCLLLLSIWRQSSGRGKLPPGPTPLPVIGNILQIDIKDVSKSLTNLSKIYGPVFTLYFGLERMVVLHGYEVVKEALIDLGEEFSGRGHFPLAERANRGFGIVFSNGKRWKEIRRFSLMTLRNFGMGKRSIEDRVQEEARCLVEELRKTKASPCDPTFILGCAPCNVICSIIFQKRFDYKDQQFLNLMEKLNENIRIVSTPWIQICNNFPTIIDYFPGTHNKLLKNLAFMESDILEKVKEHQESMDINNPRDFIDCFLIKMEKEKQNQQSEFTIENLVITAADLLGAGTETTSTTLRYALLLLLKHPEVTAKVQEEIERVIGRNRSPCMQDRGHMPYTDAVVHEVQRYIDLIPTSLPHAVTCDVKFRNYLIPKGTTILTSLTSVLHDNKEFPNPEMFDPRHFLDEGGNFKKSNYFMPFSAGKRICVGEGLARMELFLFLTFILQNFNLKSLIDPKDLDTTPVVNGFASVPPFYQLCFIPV

[7] = target: T2, human CYP1A2; settings: human
[8] = target: T1, human CYP2C9; assay: biochemical; settings: for IC50: CYP2C9 IC50 (half-maximal inhibitory concentration)
[9] = target: T4, human CYP2C19; assay: biochemical
[10] = target: T3, human CYP2D6; assay: biochemical; settings: for AC50: CYP2D6 AC50 (half-maximal activity concentration); for IC50: CYP2D6 IC50 (half-maximal inhibitory concentration)
[11] = CYP1A2 IC50 (half-maximal inhibitory concentration)
[12] = CYP2C19 IC50 (half-maximal inhibitory concentration)

T1 sequence (P11712 whole entry): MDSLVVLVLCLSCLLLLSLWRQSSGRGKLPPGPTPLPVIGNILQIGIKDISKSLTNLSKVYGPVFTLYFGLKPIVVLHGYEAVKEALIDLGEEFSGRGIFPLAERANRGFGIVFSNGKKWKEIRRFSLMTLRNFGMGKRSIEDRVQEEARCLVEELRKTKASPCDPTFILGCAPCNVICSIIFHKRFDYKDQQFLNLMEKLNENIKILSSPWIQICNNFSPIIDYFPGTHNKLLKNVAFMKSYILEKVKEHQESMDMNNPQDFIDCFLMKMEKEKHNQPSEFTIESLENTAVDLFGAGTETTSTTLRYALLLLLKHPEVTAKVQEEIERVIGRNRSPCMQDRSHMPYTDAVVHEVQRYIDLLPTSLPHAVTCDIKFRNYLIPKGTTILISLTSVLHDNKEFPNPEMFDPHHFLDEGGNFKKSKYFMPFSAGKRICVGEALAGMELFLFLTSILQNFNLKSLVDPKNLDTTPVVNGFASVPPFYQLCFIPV
Sequence of Photinus pyralis (firefly) luciferase (P08659 whole entry): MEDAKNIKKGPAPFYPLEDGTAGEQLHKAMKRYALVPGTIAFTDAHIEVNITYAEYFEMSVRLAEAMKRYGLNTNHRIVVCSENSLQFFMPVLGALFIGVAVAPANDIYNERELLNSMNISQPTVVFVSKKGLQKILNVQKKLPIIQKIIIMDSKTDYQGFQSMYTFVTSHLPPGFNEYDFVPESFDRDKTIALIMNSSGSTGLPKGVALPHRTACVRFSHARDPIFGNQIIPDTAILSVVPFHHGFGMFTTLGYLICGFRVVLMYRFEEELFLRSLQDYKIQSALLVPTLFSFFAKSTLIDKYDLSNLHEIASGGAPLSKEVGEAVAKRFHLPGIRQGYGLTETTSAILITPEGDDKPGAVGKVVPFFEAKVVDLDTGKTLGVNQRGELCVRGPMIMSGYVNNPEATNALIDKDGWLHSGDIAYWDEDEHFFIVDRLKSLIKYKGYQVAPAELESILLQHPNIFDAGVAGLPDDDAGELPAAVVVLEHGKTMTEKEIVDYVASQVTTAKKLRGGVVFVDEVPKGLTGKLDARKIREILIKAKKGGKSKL

Nc1c(Br)cc(Br)c2c1C(=O)c1ccccc1C2=O [1-Amino-2,4-dibromoanthraquinone]
Luciferase IC50 (half-maximal inhibitory concentration) [1]: Inactive
CYP2C9 IC50 (half-maximal inhibitory concentration) [2]: Inactive
IC50 [3, 11]: 140 nM
CYP2D6 IC50 (half-maximal inhibitory concentration) [4]: Inactive
CYP3A4 IC50 (half-maximal inhibitory concentration) [5]: Inactive
CYP2C19 IC50 (half-maximal inhibitory concentration) [6]: Inactive
CYP1A2 Efficacy (in parenthesis) [7]: 0.14 ± 0.03 (-99 ± 12) %

O=C1c2ccccc2C(=O)c2cc(Cl)ccc21 [2-Chloroanthraquinone]
Luciferase IC50 (half-maximal inhibitory concentration) [1]: Inactive
CYP2C9 IC50 (half-maximal inhibitory concentration) [2]: Inactive
IC50 [3]: 110 ± 30 nM
CYP2D6 IC50 (half-maximal inhibitory concentration) [4]: Inactive
CYP3A4 IC50 (half-maximal inhibitory concentration) [5]: Inactive
CYP2C19 IC50 (half-maximal inhibitory concentration) [6]: Inactive

Brc1c2ccccc2c(Br)c2ccccc12 [9,10-Dibromoanthracene]
Luciferase IC50 (half-maximal inhibitory concentration) [1]: Inactive
CYP2C9 IC50 (half-maximal inhibitory concentration) [2]: Inactive
IC50 [3, 11]: 410 nM
CYP2D6 IC50 (half-maximal inhibitory concentration) [4]: Inactive
CYP3A4 IC50 (half-maximal inhibitory concentration) [5]: Inactive
CYP2C19 IC50 (half-maximal inhibitory concentration) [6]: Inactive
CYP1A2 Efficacy (in parenthesis) [7]: 0.41 ± 0.27 (-85 ± 6) %

Brc1cc2ccccc2c2ccccc12 [9-Bromophenanthrene]
Luciferase IC50 (half-maximal inhibitory concentration) [1]: Inactive
CYP2C9 Efficacy (in parenthesis) ([2]; human): 56.84 ± 0 (-53 ± 6) %
IC50 [3, 11]: 320 nM
CYP2D6 IC50 (half-maximal inhibitory concentration) [4]: Inactive
IC50 [8]: 56800 nM
IC50 [9, 12]: 29400 nM
CYP3A4 IC50 (half-maximal inhibitory concentration) [5]: Inactive
CYP2C19 Efficacy (in parenthesis) ([6]; human): 29.42 ± 9.47 (-107 ± 13) %
CYP1A2 Efficacy (in parenthesis) [7]: 0.32 ± 0.09 (-101 ± 1) %

c1ccc2cc3ccccc3cc2c1 [Anthracene]
Luciferase IC50 [1]: Inactive
CYP2C9 IC50 [2]: Inactive
IC50 ([3]; CYP1A2 IC50): 500 nM
CYP2D6 IC50 [4]: Inactive
IC50 ([9]; CYP2C19 IC50): 67000 nM
CYP3A4 IC50 [5]: Inactive

O=C1c2ccccc2C(=O)c2ccccc21 [Anthraquinone]
Luciferase IC50 (half-maximal inhibitory concentration) [1]: Inactive
CYP2C9 IC50 (half-maximal inhibitory concentration) [2]: Inactive
IC50 [3, 11]: 230 nM
CYP2D6 IC50 (half-maximal inhibitory concentration) [4]: Inactive
CYP3A4 IC50 (half-maximal inhibitory concentration) [5]: Inactive
CYP2C19 IC50 (half-maximal inhibitory concentration) [6]: Inactive
CYP1A2 Efficacy (in parenthesis) [7]: 0.23 ± 0.06 (-96 ± 3) %

c1cc2ccc3ccc4ccc5cccc6c(c1)c2c3c4c56 [Benzo(g,h,i)perylene]
Luciferase IC50 [1]: Inactive
CYP2C9 IC50 [2]: Inactive
IC50 ([3]; CYP1A2 IC50): 160 nM
CYP2D6 IC50 [4]: Inactive
CYP3A4 IC50 [5]: Inactive
CYP2C19 IC50 [6]: Inactive

c1ccc2cc3c(cc2c1)-c1cccc2cccc-3c12 [Benzo(k)fluoranthene]
Luciferase IC50 [1]: Inactive
CYP2C9 IC50 [2]: Inactive
IC50 ([3]; CYP1A2 IC50): 170 nM
CYP2D6 IC50 [4]: Inactive
CYP3A4 IC50 [5]: Inactive
CYP2C19 IC50 [6]: Inactive

CC(C)(Cc1c[nH]c2ccccc12)NCC(O)COc1ccccc1C#N (stereo not shown) [Bucindolol]
Luciferase IC50 (half-maximal inhibitory concentration) [1]: Inactive
CYP2C9 IC50 (half-maximal inhibitory concentration) [2]: Inactive
IC50 [3]: 29200 ± 2380 nM
CYP3A4 IC50 (half-maximal inhibitory concentration) [5]: Inactive
CYP2C19 IC50 (half-maximal inhibitory concentration) [6]: Inactive

c1ccc2c(c1)ccc1c3ccccc3ccc21 [Chrysene]
Luciferase IC50 [1]: Inactive
CYP2C9 IC50 [2]: Inactive
IC50 ([3]; CYP1A2 IC50): 650 nM
CYP2D6 IC50 [4]: Inactive
CYP3A4 IC50 [5]: Inactive
CYP2C19 IC50 [6]: Inactive

CN1CCC(=C2c3ccccc3C=Cc3ccccc32)CC1 [Cyproheptadine hydrochloride]
AC50 ([9]; CYP2C19 AC50 (half-maximal activity concentration)): 21500 nM
AC50 [10]: 2670 nM

c1ccc2cc3c4ccccc4c4ccccc4c3cc2c1 [Dibenz[a,c]anthracene]
Luciferase IC50 [1]: Inactive
CYP2C9 IC50 [2]: Inactive
IC50 ([3]; CYP1A2 IC50): 210 nM
CYP2D6 IC50 [4]: Inactive
CYP3A4 IC50 [5]: Inactive
CYP2C19 IC50 [6]: Inactive

CCCCOc1ccc(C(=O)CCN2CCCCC2)cc1 [Dyclonine hydrochloride]
AC50 ([8]; CYP2C9 AC50 (half-maximal activity concentration)): 14500 nM
AC50 [10]: 6920 nM

OC(CN1CCC(Cc2ccc(F)cc2)CC1)c1ccc(Cl)cc1 (stereo not shown) [Eliprodil]
AC50 [10]: 120 nM
IC50 [10]: 120 nM

CC(Cc1ccccc1)NCCn1cnc2c1c(=O)n(C)c(=O)n2C (stereo not shown) [Fenethylline hydrochloride]
IC50 [9, 12]: 85100 nM
IC50 [10]: 5370 nM

CCN(CC)CCN1C(=O)CN=C(c2ccccc2F)c2cc(Cl)ccc21 [Flurazepam]
IC50 [10]: 15600 nM

CCC(=O)O[C@]1(C(=O)SCF)[C@H](C)C[C@H]2[C@@H]3C[C@H](F)C4=CC(=O)C=C[C@]4(C)[C@@]3(F)[C@@H](O)C[C@@]21C [Fluticasone propionate]
IC50 [8]: 4840 nM
IC50 [10]: 13000 nM
